According to ChEMBL document CHEMBL1201862, “PubChem BioAssay data set” (2004):
Calls of active or inactive are those of the source. Rule as the data show it, for most assays here: actives have a measured EC50 and inactives only a lower limit.

Key:
[1] = Luminescence Cell-Based Dose Retest to Confirm Inhibitors of Cancer Stem Cells. [Related pubchem assays (depositor defined):AID2717, AID2721]; assay type: functional; conditions: Homo sapiens
[2] = target: T1, Replicative DNA helicase DnaB (Mycobacterium tuberculosis, UniProt P9WMR3); assay: DnaB intein splicing inhibitors, dose response, biochemical, cell-free fluorescence (AID 449749); assay type: functional
T1 sequence (P9WMR3 whole entry): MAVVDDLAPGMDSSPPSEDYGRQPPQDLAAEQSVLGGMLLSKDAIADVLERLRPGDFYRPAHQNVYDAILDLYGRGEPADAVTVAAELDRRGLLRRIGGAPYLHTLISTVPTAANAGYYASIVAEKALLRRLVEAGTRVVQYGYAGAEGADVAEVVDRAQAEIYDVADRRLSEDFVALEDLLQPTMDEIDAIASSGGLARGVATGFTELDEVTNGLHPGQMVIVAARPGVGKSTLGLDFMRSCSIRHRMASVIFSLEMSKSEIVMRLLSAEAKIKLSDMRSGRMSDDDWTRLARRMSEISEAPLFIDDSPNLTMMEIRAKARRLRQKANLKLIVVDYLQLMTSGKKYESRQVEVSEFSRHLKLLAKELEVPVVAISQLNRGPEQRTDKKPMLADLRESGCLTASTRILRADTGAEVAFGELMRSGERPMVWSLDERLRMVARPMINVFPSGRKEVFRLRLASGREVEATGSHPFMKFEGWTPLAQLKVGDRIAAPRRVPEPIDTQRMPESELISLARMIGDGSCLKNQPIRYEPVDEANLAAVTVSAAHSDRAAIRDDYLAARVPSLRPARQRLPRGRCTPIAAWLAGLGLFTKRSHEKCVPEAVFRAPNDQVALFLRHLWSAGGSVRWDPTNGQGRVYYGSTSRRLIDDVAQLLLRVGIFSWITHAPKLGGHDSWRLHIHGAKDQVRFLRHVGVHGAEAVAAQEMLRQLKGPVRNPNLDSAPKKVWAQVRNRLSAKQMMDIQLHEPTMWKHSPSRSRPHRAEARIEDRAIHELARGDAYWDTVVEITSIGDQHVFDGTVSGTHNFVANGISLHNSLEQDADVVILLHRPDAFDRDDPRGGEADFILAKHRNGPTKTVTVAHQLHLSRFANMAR

Protein RecA = target: T2, Protein RecA (Mycobacterium tuberculosis, UniProt P9WHJ3); assay: Fluorescence Cell-Free Homogeneous Dose Retest to Identify Inhibitors of RecA-Intein Splicing Activity. [Related pubchem assays (depositor defined):AID2097, AID2223, AID489010, AID492950]; assay type: functional
T2 sequence (P9WHJ3 whole entry): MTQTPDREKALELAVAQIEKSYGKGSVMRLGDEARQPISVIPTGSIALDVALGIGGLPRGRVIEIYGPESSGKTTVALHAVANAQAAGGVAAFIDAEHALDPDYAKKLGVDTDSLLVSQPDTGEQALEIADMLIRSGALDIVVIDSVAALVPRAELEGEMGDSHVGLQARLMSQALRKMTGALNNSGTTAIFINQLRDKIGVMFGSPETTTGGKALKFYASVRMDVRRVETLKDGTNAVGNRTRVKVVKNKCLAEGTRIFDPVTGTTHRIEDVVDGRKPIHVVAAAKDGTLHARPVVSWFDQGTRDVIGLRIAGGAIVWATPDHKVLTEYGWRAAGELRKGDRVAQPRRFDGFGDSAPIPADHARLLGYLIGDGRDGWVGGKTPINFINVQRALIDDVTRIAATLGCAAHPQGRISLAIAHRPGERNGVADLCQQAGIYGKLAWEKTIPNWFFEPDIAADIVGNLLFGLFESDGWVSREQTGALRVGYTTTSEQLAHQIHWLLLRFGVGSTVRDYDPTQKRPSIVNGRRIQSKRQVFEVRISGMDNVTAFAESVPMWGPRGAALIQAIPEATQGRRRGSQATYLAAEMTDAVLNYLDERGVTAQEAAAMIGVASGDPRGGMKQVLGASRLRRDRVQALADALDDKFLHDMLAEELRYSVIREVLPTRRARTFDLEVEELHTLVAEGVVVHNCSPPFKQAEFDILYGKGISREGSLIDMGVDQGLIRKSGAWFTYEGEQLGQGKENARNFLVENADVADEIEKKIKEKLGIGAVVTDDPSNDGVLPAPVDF

[3] = target: T3, Heat shock factor protein 1 (Mus musculus, UniProt P38532); assay: enhancement of HSF1-driven luciferase signal – cell-based, NIH3T3, luminescence, dose retest, confirmation (AID 435004); assay type: functional;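 also: stress induced by proteasome inhibitor MG132 added 30 min after compound; luciferase reporter driven by HSF1 response element in NIH3T3 cells; actives raise luminescence as potentiators of the MG132 stress response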
T3 sequence (P38532 whole entry): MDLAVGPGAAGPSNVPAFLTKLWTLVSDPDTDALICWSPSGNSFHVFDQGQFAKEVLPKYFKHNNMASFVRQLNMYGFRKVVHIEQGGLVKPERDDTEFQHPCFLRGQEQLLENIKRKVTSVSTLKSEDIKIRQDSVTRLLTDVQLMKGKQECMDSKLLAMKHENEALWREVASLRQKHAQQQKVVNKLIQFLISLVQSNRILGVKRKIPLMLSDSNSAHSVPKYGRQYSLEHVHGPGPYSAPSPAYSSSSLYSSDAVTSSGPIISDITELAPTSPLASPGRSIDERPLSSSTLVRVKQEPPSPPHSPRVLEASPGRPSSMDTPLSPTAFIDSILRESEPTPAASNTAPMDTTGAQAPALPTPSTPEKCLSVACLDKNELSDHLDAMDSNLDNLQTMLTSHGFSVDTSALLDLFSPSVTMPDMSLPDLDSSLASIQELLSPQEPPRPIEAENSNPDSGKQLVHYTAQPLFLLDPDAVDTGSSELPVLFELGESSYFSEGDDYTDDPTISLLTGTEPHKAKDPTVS

Vero [4] = assay: mammalian cell viability reduction – secondary assay, cytotoxicity control for West Nile virus antiviral project, dose response (AID 1650); assay type: functional; conditions: Chlorocebus sabaeus
[5] = NIH-3T3 fibroblast cytotoxicity, dose response, cytotoxicity control, cell-based, fluorescence, Alamar Blue, secondary assay (AID 2327); assay type: functional;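 also: NIH-3T3 mouse fibroblasts cultured with fluconazole at 8 µg/mL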
[6] = fluconazole-exposed Candida albicans growth modulators – fluorescence, retest, confirmation (AID 2467); assay type: functional, cell-based
Troponin, cardiac muscle = Troponin, cardiac muscle (Homo sapiens, UniProt P19429+P45379+P63316); assay: Fluorescence-based biochemical high throughput dose response assay for activators of the calcium sensitivity of cardiac Regulated Thin Filaments (RTF). [Related pubchem assays (depositor defined):AID493008, AID493018, AID504382, AID504383]; assay type: protein-complex assay
[7] = mitochondrial function rescue without frataxin homolog – Friedreich's ataxia, plus single-dose screen, dose response (AID 1465); assay type: functional;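 also: yeast depleted of Yfh1p frataxin homolog grown on glycerol needing respiration; WST-1 tetrazolium dye reduction as measure of cellular dehydrogenase metabolic activity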
Vero [8] = assay: cells; assay type: functional, cell-based; conditions: Chlorocebus sabaeus
[9] = target: Induced myeloid leukemia cell differentiation protein Mcl-1 (Homo sapiens, UniProt Q07820); assay type: functional
Vero [10] = assay: cells; assay type: functional; conditions: Chlorocebus sabaeus
NS3 = NS3 (Hepatitis C virus, UniProt A3EZJ3); assay: PubChem AID 2173; set-up: species or system Hepacivirus hominis
Vero [11] = assay: viability of Vero cells under compound – cytotoxicity control for flavivirus capping enzyme inhibitors (AID 588742); assay type: functional; conditions: Chlorocebus sabaeus
[12] = luciferase reporter signal suppression in cells – H4 neuroglioma cells, luminescence, dose response (AID 1990); assay type: functional, cell-based
[13] = Luminescence Cell-Based Dose Response HTS to Identify Inhibitors of 5'UTR Stem-Loop Driven Prion Protein mRNA Translation in H4 Neuroglioblastoma Cells. [Related pubchem assays: 1827 (Project Summary), 1813 (Primary HTS)]; assay type: functional
[14] = alpha-synuclein stem-loop luciferase translation blockers – H4 neuroglioma cells, luminescence, confirmation (AID 1988); assay type: functional, cell-based
[15] = Luminescence Cell-Based Dose Response HTS to Identify Activators of Luciferase Translation or Activity in H4 […] Cells. [Related pubchem assays: 1829 (Project Summary), 1814 (Primary HTS)]; assay type: functional
[16] = Luminescence Cell-Based Dose Response to Identify Activators of 5'UTR Stem-Loop Driven Prion Protein mRNA Translation in H4-C Neuroglioblastoma Cells. [Related pubchem assays: 1829 (Project Summary), 1814 (Primary HTS)]; assay type: functional
[17] = Luminescence Cell-Based Dose Confirmation HTS to Identify Activators of 5'UTR Stem-Loop Driven Alpha-Synuclein mRNA Translation in H4 Neuroglioblastoma Cells. [Related pubchem assays: 1829 (Project Summary), 1814 (Primary HTS)]; assay type: functional
H4 = assay: Luminescence Cell-Based Dose Response HTS to Identify Activators of 5'UTR Stem-Loop Driven Prion Protein mRNA Translation in H4 Neuroglioblastoma Cells. [Related pubchem assays: 1829 (Project Summary), 1814 (Primary HTS)]; assay type: functional; conditions: Homo sapiens
[18] = Luminescence Cell-Based Dose Confirmation to Identify Activators of 5'UTR Stem-Loop Driven Alpha-Synuclein mRNA Translation in H4 Neuroglioblastoma Cells. [Related pubchem assays: 1829 (Project Summary), 1814 (Primary HTS)]; assay type: functional
[19] = Luminescence Cell-Based Dose Response to Identify Activators of Luciferase Translation or Activity in H4-C Neuroglioblastoma Cells. [Related pubchem assays: 1829 (Project Summary), 1814 (Primary HTS)]; assay type: functional
[20] = microbe, parasite or virus in culture; assay type: functional; conditions: Mycobacterium tuberculosis
BJ = assay: growth inhibition of engineered Ras-driven BJ cells – cell-based, alamar blue fluorescence, cherrypicked samples, dose response (AID 2631); assay type: functional; conditions: Homo sapiens;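 also: confirmatory dose-response assay in RAS-dependent BJ fibroblasts engineered with TERT, LT and ST, with cytotoxicity read by fluorescence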
[21] = target: Sphingosine 1-phosphate receptor 1 (Homo sapiens, UniProt P21453); assay type: functional;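 also: Tango beta-arrestin reporter U2OS cells stimulated with S1P near its EC80; inhibitor potency meaning antagonism of receptor activation by the natural agonist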
[22] = target: T3, Heat shock factor protein 1; assay: decrease of HSF1-responsive luciferase luminescence – cell-based, NIH3T3, dose retest, confirmation (AID 2382); assay type: functional;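 also: NIH3T3 fibroblasts with HSF1-driven luciferase reporter stressed by proteasome inhibitor MG132; luminescence from HSF1-driven luciferase expression after 8 hours of MG132 stress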
[23] = target: Sphingosine 1-phosphate receptor 4 (Homo sapiens, UniProt O95977); assay: Fluorescence dose response cell-based high throughput screening assay for antagonists of the Sphingosine 1-Phosphate Receptor 4 (S1P4). [Related pubchem assays: 1524 (Confirmation in triplicates.), 1510 (Primary screen.)]; assay type: functional
[24] = system: Streptococcus sp. 'group A'; assay: Streptococcus pyogenes SK(-)GAS viability under kanamycin – luminescence, BacTiterGlo, confirmation, counter-screen for streptokinase expression inhibitor project, dose response (AID 1900); assay type: functional, organism-based
Streptokinase A = target: T4, Streptokinase A (Streptococcus pyogenes serotype M1, UniProt P10520); assay: viability-normalized secreted streptokinase activity reduction – plasminogen activation absorbance, OD405, dose response (AID 1914); assay type: functional, Streptococcus pyogenes M1 GAS;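 also: secreted streptokinase activity via plasminogen activation per viability signal from cell pellet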
T4 sequence (P10520 whole entry): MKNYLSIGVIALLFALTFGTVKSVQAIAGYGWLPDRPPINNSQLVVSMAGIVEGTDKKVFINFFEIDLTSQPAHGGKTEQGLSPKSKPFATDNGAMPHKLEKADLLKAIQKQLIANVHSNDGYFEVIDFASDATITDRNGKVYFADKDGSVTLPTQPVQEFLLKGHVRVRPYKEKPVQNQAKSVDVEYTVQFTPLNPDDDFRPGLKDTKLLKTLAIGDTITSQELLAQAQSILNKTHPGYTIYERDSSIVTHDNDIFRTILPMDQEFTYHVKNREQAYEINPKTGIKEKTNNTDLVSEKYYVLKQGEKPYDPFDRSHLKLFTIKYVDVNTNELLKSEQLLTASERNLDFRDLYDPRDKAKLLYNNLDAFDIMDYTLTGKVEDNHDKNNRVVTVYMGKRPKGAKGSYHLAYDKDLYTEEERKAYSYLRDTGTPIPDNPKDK

Streptococcus = assay: GAS UMAA2166 growth inhibition – luminescence, BacTiterGlo, counter-screen for streptokinase expression inhibitor project, dose response (AID 1915); assay type: functional, organism-based;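 also: potency for reduction of bacterial viability or growth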

SMILES: COc1ccc(/C=C/C(=O)c2ccc(O)cc2)cc1COc1ccc(F)cc1
- AC50 [1]: 3.91 µM (active)
- AC50 [2]: > 380 µM (inactive)
- EC50 (Protein RecA): > 380 µM (inactive)
- EC50 [3]: 24.3 µM (active)
- CC50 (Vero [4]): 33.9 µM (active)

SMILES: COc1ccc(NC(=O)/C(C#N)=C\c2ccc(N3CCOCC3)o2)cc1
- EC50 [5]: > 160 µM (inactive)
- EC50 [6]: 1.68 µM (active)
- EC50 (Troponin, cardiac muscle): 1.58 µM (active)
- EC50 [7]: > 100 µM (active)

SMILES: CN=c1ccc(Br)cc(C(=O)/C=C/c2ccc(Cl)cc2Cl)c1O
- IC50 (Vero [8]): 12.2 µM (active)
- IC50 [9]: 5.26 µM (active)
- CC50 (Vero [10]): 14.4 µM (active)
- IC50 (NS3): 8.09 µM (active)
- CC50 (Vero [11]): 24.7 µM (active)

SMILES: Cn1c(=O)oc2cc(S(=O)(=O)N3CCCC(C(=O)NC4CCCc5ccccc54)C3)ccc21 (stereo not drawn)
- EC50 [12]: 13.8 µM (active)
- EC50 [13]: 22.5 µM (active)
- EC50 [14]: 12.9 µM (active)
- CC50 (Vero [4]): 2.41 µM (active)

SMILES: O=C(Nc1nc2ccccc2[nH]1)C12CC3CC(CC(C3)C1)C2
- EC50 [15]: 0.19 µM (active)
- EC50 [16]: 0.299 µM (active)
- EC50 [17]: < 0.1 µM (active)
- EC50 (H4): 0.101 µM (active)
- EC50 [18]: 0.341 µM (active)
- EC50 [19]: 0.358 µM (active)
- CC50 [20]: > 40 µM (active)

SMILES: O=C(CCl)Nc1cc(SCC(O)CO)cc([N+](=O)[O-])c1 (stereo not drawn)
- EC50 (BJ): 1.05 µM (active)
- IC50 [21]: 4.46 µM (active)
- EC50 [22]: 2.13 µM (active)
- IC50 [23]: 1.31 µM (active)

SMILES: Oc1c(Cl)cc(Cl)cc1/C=N/NC(=S)NC1CC2C=CC1C2 (stereo not drawn)
- EC50 [24]: 0.333 µM (active)
- EC50 (Streptokinase A): 0.539 µM (active)
- EC50 (Streptococcus): 1.3 µM (active)
- IC50 (NS3): 8.21 µM (active)
